In patent US12383555B2, “Methods of treating cancers” (Foghorn Therapeutics Inc., priority 2020, dated 2025):

Columns and labels:
[1] = system: EOL-1 human AML tumor cells; test: Subcutaneous EOL-1 tumor growth in vivo; design: species or system BALB/c Nude mice; conditions: 50 mg/kg daily for 21 days, oral route
Description: (§1) Method: BALB/c Nude mice (Beijing Anikeeper Biotech, Beijing) were inoculated subcutaneously on the right flank with the single cell suspension of EOL-1 or MV4;11 human AML tumor cells (1×10^7) in 100 μL IDMD in 10% Fetal Bovine Serum (FBS). When tumor size reach ˜100 mm3, the mice were randomized into either Vehicle group [20% HP-β-CD) or Treatment group: Compound 19 at 50 mg/kg daily for 21 days per oral route. All dose volumes were adjusted by body weights in terms of mg/kg.

[2] = Tolerability by % body weight change in EOL-1 or MV4;11 tumor-bearing mice; assay type: in vivo; conditions: 50 mg/kg daily for 21 days, oral route; MV4;11 and EOL-1 models
Description: as §1

[3] = system: MV4;11 human AML tumor cells; test: Subcutaneous MV4;11 tumor growth in vivo; design: species or system BALB/c Nude mice; conditions: 50 mg/kg daily for 21 days, oral route
Description: as §1

AML cell lines (OCIAML5) = test: Cancer cell line growth inhibition (Cell-titer glo, GI50, day 3 and day 7), compound 17; assay type: cell-based; conditions: compound 17, 0 to 10 micromolar
[4] = system: AML cell lines (OCIAML5, KASUMI1); test: Cancer cell line growth inhibition (Cell-titer glo, GI50, day 3 and day 7), compound 18; assay type: cell-based; conditions: compound 18, 0 to 10 micromolar
Description: Procedure: Uveal melanoma cell lines (92-1, MP41, MP38, MP46), prostate cancer cell lines (LNCAP), lung cancer cell lines (NCIH1299), and immortalized embryonic kidney lines (HEK293T) were plated into 96 well plates with growth media (see Table 1). […] Cells were incubated at 37° C. for 3 days. After 3 days of treatment, the media was removed from the cells, and 30 microliters of TrypLE (Gibco) was added to cells for 10 minutes. Cells were detached from the plates and resuspended with the addition of 170 microliters of growth media. Cells from two DMSO-treated control wells were counted, and the initial number of cells plated at the start of the experiment, were re-plated into fresh-compound containing plates for an additional four days at 37° C. At day 7, cells were harvested as described above.
On day 3 and day 7, relative cell growth was measured by the addition of Cell-titer glo (Promega), and luminescence was measured on an Envision plate reader (Perkin Elmer).
At the time of cell splitting on days 3 and 7, cells were split into new 96 well plates, and fresh compound was added four hours after re-plating.
Procedure: All cell lines described above in Example 2 were also tested as described above with compound 18. In addition, the following cell lines were also tested as follows. […]

[5] = system: OCI-AML2 human AML tumor cells; test: Subcutaneous OCI-AML2 tumor growth in vivo; design: species or system SCID mice; conditions: 1.5 mg/kg daily for 21 days, oral route; tumor carries a DNMT3A mutation
Description: (§2) Method: SCID mice (Charles River, Wilmington) were inoculated subcutaneously on the right flank with the single cell suspension of OCI-AML2 human AML tumor cells (1×10^7) in 100 μL in RPMI-1640 media. When tumor size reach ˜100 mm^3, the mice were randomized into either Vehicle group (20% HP-β-CD) or Treatment group (Compound 20 at 1.5 mg/kg daily for 21 days per oral route). All dose volumes were adjusted by body weights in terms of mg/kg.

[6] = Tolerability by % body weight change in OCI-AML2 tumor-bearing mice; assay type: in vivo; conditions: 1.5 mg/kg daily for 21 days, oral route
Description: as §2

SMILES: C[C@@H]1CN(c2cccc(-c3csc(NC(=O)CNC(=O)c4ccn(C(C)(C)C)c4)n3)n2)C[C@H](C)O1 [Compound 19, 1-(tert-butyl)-N-(2-((4-(6-(cis-2,6-dimethylmorpholino)pyridin-2-yl)thiazol-2-yl)amino)-2-oxoethyl)-1H-pyrrole-3-carboxamide]
- Effect on EOL-1 tumor growth (FIG. 5) [1]: delayed the growth
- Tolerability based on % body weight change [2]: well tolerated
- Effect on MV4;11 tumor growth (FIG. 4) [3]: tumor stasis

SMILES: CSCC[C@H](NC(=O)c1ccc(N)cc1)C(=O)Nc1nc(-c2cccc(-c3ccncc3)c2)cs1 [Compound 17, 4-amino-N-[(1S)-3-methylsulfanyl-1-[[4-[3-(4-pyridyl)phenyl]thiazol-2-yl]carbamoyl]propyl]benzamide]
- Duration of inhibition of the AML cell lines (FIG. 1) (AML cell lines (OCIAML5)): maintained through day 7

SMILES: CSCC[C@H](NC(=O)c1ccn(S(C)(=O)=O)c1)C(=O)Nc1nc(-c2cccc(-c3ccncc3)c2)cs1 [Compound 18, (S)-1-(methylsulfonyl)-N-(4-(methylthio)-1-oxo-1-((4-(3-(pyridin-4-yl)phenyl)thiazol-2-yl)amino)butan-2-yl)-1H-pyrrole-3-carboxamide]
- Duration of inhibition of the AML cell lines (FIG. 2) [4]: maintained through day 7
- Sensitivity of the AML cell lines relative to the other tested cell lines (GI50, FIG. 2) ([4]; day 3 and day 7): more sensitive to BRG1/BRM inhibition than the other tested cell lines

SMILES: COC[C@H](NC(=O)c1ccn(S(C)(=O)=O)c1)C(=O)Nc1nc(-c2cccc(N3C[C@@H](C)O[C@@H](C)C3)n2)cs1 [Compound 20, N—((S)-1-((4-(6-(cis-2,6-dimethylmorpholino)pyridin-2-yl)thiazol-2-yl)amino)-3-methoxy-1-oxopropan-2-yl)-1-(methylsulfonyl)-1H-pyrrole-3-carboxamide]
- Effect on OCI-AML2 tumor growth (FIG. 6) [5]: inhibited the growth
- Tolerability based on % body weight change [6]: well tolerated
